The text below walks through data of patent US8062662B2, “Liposomes containing an entrapped compound in supersaturated solution” (Alza Corporation, priority 2000, dated 2011).

Each structure is given as a SMILES string.

A short description of this data set: [1H,15N] HSQC NMR / HPLC: reactivity of cisplatin with histidine and leakage from liposomes. Format: physicochemical. As to conditions: 24-hour incubation, 1:1 mole ratio with N-acetyl histidine. An excerpt:
Inverse detection experiments detect the protons that are coupled to ^15N and thus provide information about the chemical shifts and coupling constants of the ^15N which depend on the ligands in the first coordination sphere of the Pt and on its oxidation state. […] HSQC and HMQC are two-dimensional inverse detection experiments that have the proton chemical shifts on one axis and the ^15N chemical shifts on the second axis. HSQC and HMQC of ^15N-labeled Pt complexes have been used successfully, to detect micromolar concentrations of Pt complexes. In the studies performed in support of the invention, HSQC was used, since it gives narrower lines and better resolution than HMQC. […] In addition to the tremendous gain in sensitivity, HSQC selectively detects only the protons that are coupled to the ^15N, thus ignoring all the other protons in the solution (from the liposomes) and simplifying the interpretation of the data.
These associations are irreversible, thus making the drug unavailable, once bound.
A similar study was carried out with N-BOC-methionine.
Lipids (HSPC/cholesterol/^2000PEG-DSPE 51:44:5) were dissolved in ethanol. […] Aliquots of the liposomes and of both precipitates were analyzed by heteronuclear single quantum coherence (HSQC) at 30° C. […]
All [^1H, ^15N] […] The 2D data were recorded using Bruker sequence of […] […]

For `N.N.[Cl][Pt][Cl]` [^15N-cisplatin, cis-^15N-diamminedichloroplatinum(II)], the “cisplatin-histidine species, share of the platinum detected (HPLC)” value was 20-30%.
